According to US20170119806A1, “[…] LACTONE DERIVATIVES AND METHODS OF MAKING AND USING THEREOF” (OHIO STATE INNOVATION FOUNDATION, priority 2014, published 2017):
Entries after “also recorded” stand apart in the source; their conditions may differ.

Key:
[1] = test system: STAT3, STAT4, STAT5, T-BET; assay: Immunoblotting of STATs and T-BET in NK cells; type: cell-based, human; conditions: 5 or 10 μM PL-C, 4 h, with IL-12 or IL-15; listed as PL-C
Method: (A) Purified human primary NK cells were treated with 10 μM PL-C in the presence of IL-2 (10 ng/mL) or IL-15 (100 ng/mL) for 12 hours. DMSO-treated cells served as vehicle controls. Cell pellets were harvested to extract total RNA for real-time RT-PCR to determine mRINA expression levels of IL-12Rβ1, IL-12Rβ2, IL-15Rα and IL-15β. Data are shown as means of 3 donors, * and ** indicate p<0.05 and p<0.01, respectively, which denote a statistical comparison between the two marked treatment groups. Error bars represent S.D. (B, C) Purified primary NK cells (B) or NKL cells (C) were treated with 5 or 10 μM PL-C in the presence of IL-12 (10 ng/mL) or IL-15 (100 ng/mL) for 4 hours. DMSO-treated cells served as vehicle controls. Cell pellets were harvested for subsequent immunoblotting of T-BET, phosphorylated STAT3 (p-STAT3), p-STAT4, p-STAT5, STAT3, STAT4, and STAT5. Data represent 1 out of 3 donors with similar data (B) and 3 independent experiments with similar results (C). Numbers underneath each lane represent quantification of detected protein by densitometry, after normalizing to β-actin.
Immunoblotting. Immunoblotting was performed as described previously (Yu J et al. Immunity 2006, 24, 575-590; Yu J et al. Blood 2010, 115, 274-281). […]

[2] = test system: human primary NK cells; assay: IFN-γ production by NK cells (intracellular flow cytometry, ELISA); type: cell-based; conditions: 10 μM PL-C, 18 h
Method: (A) Chemical structure of PL-C (phyllanthusmin C, 4), (9) Healthy donor PBMCs (left panel) or enriched NK cells (right panel) were treated with DMSO vehicle control or 10 μM PL-C for 18 h in the presence of […] (10 ng/mL) or IL-15 (100 ng/mL). The cells were harvested and analyzed by intracellular flow cytometry to determine the frequency of IFN-γ^+ cells in CD56^+CD3^− NK cells (n=8 for PBMC and n=5 for enriched NK). (C) Highly purified (≧99.5%) human primary NK cells were treated with 10 μM PL-C for 18 h to determine the levels of IFN-γ secretion by ELISA. IFN-γ secretion from treatment with PL-C alone (left panel) or in combination with IL-12 (10 ng/mL, middle panel) or IL-15 (100 ng/mL, right panel) is shown. (D) Cells were treated as described in (C) and harvested at 12 h, IFNG mRNA expression was assessed by real-time RT-PCR, and the relative IFNG mRNA expression of each treatment was normalized to untreated vehicle control in the same donor. Data are shown as mean±SEM (n=6 in each treatment; error bars represent SEM). *p<0.05, **p<0.01, which denote statistical comparison between the two marked treatment groups (B-D). (E) Highly purified (≧99,5%) primary human NK cells were treated with 10 μM. PL-C in combination with various concentrations of IL-12 (10, 1, and 0.1 ng/mL) or IL-15 (100, 10, and 1 ng/mL) for 24 h to determine the levels of IFN-γ secretion. Representative data from one of three donors with the similar data are shown. *p<0.05, **p<0.01, which denote statistical comparison between the two marked treatment groups and are calculated from data of all tested donors. Error bars represent SD. […]
Isolation of PBMCs and NK cells. […] The purity of enriched NK cells was ≧80% assessed by flow cytometric analysis after staining with CD56-allophycocyanin and CD3-FITC Abs (BD Bio-sciences, San Jose, Calif.). […] The purity of magnetic bead-purified NK cells was ≧99.5%, as determined by the aforementioned flow cytometric analysis. […]

COc1cc2c(OC3OCC(O)C(O)C3O)c3c(c(-c4ccc5c(c4)OCO5)c2cc1OC)C(=O)OC3 (stereo not drawn) [Compound 4, Phyllanthusmin C]
total or phosphorylated STAT3, STAT4, STAT5 and T-BET in NK or NKL cells [1]: No upregulation; also recorded: no significant change of T-BET | IFN-γ production/secretion by human NK cells ([2]; alone or with IL-12 (10 ng/mL) or IL-15 (100 ng/mL), listed as PL-C): enhanced IFN-γ production; also recorded: can induce NK cell IFN-γ production; also recorded: induced NK cell secretion of IFN-γ even in the absence IL-12 or IL-15; also recorded: enhanced NK cell IFN-γ secretion in the presence of IL-12 or IL-15 stimulation; also recorded: enhanced by PL-C | IFN-γ production induced by Pam3CSK4 or FSL-1 in NK cells ([2]; ligands 1 μg/mL, IL-12 (10 ng/mL)): enhanced IFN-γ production
